Data on 16 substances can be found in patent publication US20230323358A1, “COMPOSITION AND USE OF siRNAs AGAINST VEGFR2 AND TGF-BETA1 IN COMBINATION THERAPY FOR CANCER” (Sirnaomics, Inc., priority 2021, published 2023).

Read-outs that look alike come from different tables or passages of the source. Oligonucleotides are written 5' to 3', each unit as a sugar letter and its base; * is a phosphorothioate linkage, no mark a phosphodiester; rarer units and linkages stand in square brackets, end groups in braces. Plain capitals give the bases only. {P} = phosphorylation (indicated by P); d = 2'-deoxy (DNA); m = 2'-O-methyl; r = 2'-OH (RNA); f = 2'-fluoro

The test system of this data set is VEGFR2. Nature of the data set: EC50 of VEGFR2 siRNA candidates before and after modification, knockdown in cells. It is filed as cell-based, human. The following applies: for EC50: 24 h, 24well; for knockdown effect of the modified sequence compared with unmodified: PANC-1 and MDA-MB-231 cells. The method, then: MDA-MB-231 and U87 cells were seeded in 24-well cell plates (1 × 10^5/well), and then siRNAs (21mer or 25mer or negative control) were transfected with commercial transfection reagent (lipo2000), and the siRNA transfection concentration was 100 nM. Meanwhile, untreated cells were set as blank control. Total RNA was extracted from cells 24 h after transfection. Reverse transcription was performed using the kit to obtain cDNA according to the manufacturer’s instructions. Relative levels of target gene VEGFR2 mRNA expression were determined by real-time PCR, normalized to the housekeeping gene β-actin. Gene knockdown effectiveness was expressed as a percentage of the blank control. […] VEGFR2-21-h1#, VEGFR2-21-h2#, VEGFR2-21-h5#, VEGFR2-21-h7#, VEGFR2-21-hm17#, VEGFR2-21-hm18#, VEGFR2-25-h3#, and VEGFR2- 25-h4# were selected and modified as indicated in Table 3 (SEQ ID Nos. 109-124).
The EC50 of candidate sequences before and after modification in different cells (MDA-MB-231, U87-MG and PANC-1) were compared. MDA-MB-231, PANC-1 and U87-MG cells were seeded in 24-well cell plates (1 × 10^5/well), and siRNA candidates (modified or unmodified) were transfected with multiple concentration gradients in different cells. Use the same procedure as the primary screen. Finally, the data were plotted using the software GraphPad Prism8 and EC50 values were calculated.

[1] abbreviates: MD-MB-231 cells, read-out: EC50 (nM, 24 h, 24well) Breast cancer MD-MB-231.
Setting [2] is: PANC-1 cells, read-out: EC50 (nM, 24 h, 24well) Pancreatic cancer PANC-1.
Setting [3] is: U87-MG cells, read-out: EC50 (nM, 24 h, 24well) Brain cancer U87-MG.

As a reminder, the EC50 is the concentration at which the effect is half-maximal. For the substance “VEGFR2-21-h1#: siRNA targeting VEGFR2 mRNA; sense SEQ ID 60, antisense SEQ ID 103 (sense GCCUAGUGUUUCUCUUGAUTT; antisense AUCAAGAGAAACACUAGGCTT; sugars from the 5' end r19 d2, backbone not given here)”, the “knockdown effect of the modified sequence compared with unmodified” value (shortened to “knockdown effect … compared with unmodified”) is “better than that of unmodified”. In addition, under setting [1], the EC50 stood at 0.2 nM. Besides, the EC50 under setting [2] was 0.92 nM. For the same substance, the EC50 under setting [3] came to 1.25 nM.
For the substance “VEGFR2-21-h1#mod: Modified (2′F, 2′OME, phosphorylation) siRNA targeting VEGFR2; sense SEQ ID 131, antisense SEQ ID 139 (sense mGmCmCmUmAmGfUfGfUmUmUmCmUmCmUmUmGmAmUdTdT; antisense {P}-mAfUmCmAmAmGmAmGmAmAmAmCmAfCmUmAmGmGmCdTdT)”, the 50% effective concentration (EC50) runs as follows: under setting [1], 0.23 nM; under setting [2], 0.07 nM; under setting [3], 0.99 nM.
Regarding “VEGFR2-21-h2#: siRNA targeting VEGFR2 mRNA; sense SEQ ID 61, antisense SEQ ID 104 (sense GGUCCAUUUCAAAUCUCAATT; antisense UUGAGAUUUGAAAUGGACCTT; sugars from the 5' end r19 d2, backbone not given here)”, the “knockdown effect … compared with unmodified” value is on record as “better than that of unmodified”. The EC50 under setting [1] is 0.72 nM. Further, the EC50 under setting [2] was 0.36 nM. The 50% effective concentration (EC50) under setting [3] was 10.7 nM.
Regarding “VEGFR2-21-h2#mod: Modified (2′F, 2′OME, phosphorylation) siRNA targeting VEGFR2; sense SEQ ID 132, antisense SEQ ID 140 (sense mGmGmUmCmCmAfUfUfUmCmAmAmAmUmCmUmCmAmAdTdT; antisense {P}-mUfUmGmAmGmAmUmUmUmGmAmAmAfUmGmGmAmCmCdTdT)”, the EC50 is, setting by setting: under setting [1], 0.14 nM; under setting [2], 0.08 nM; under setting [3], 2.42 nM.
“VEGFR2-21-h5#: siRNA targeting VEGFR2 mRNA; sense SEQ ID 64, antisense SEQ ID 107 (sense GCAUCAGCAUAAGAAACUUTT; antisense AAGUUUCUUAUGCUGAUGCTT; sugars from the 5' end r19 d2, backbone not given here)”: the “knockdown effect … compared with unmodified” value is recorded as “better than that of unmodified”. Further, the EC50 under setting [1] worked out at 0.4 nM. Moreover, the EC50 under setting [2] turned out to be 0.51 nM. For the same substance, the EC50 under setting [3] stood at 25.5 nM.
On to “VEGFR2-21-h5#mod: Modified (2′F, 2′OME, phosphorylation) siRNA targeting VEGFR2; sense SEQ ID 137, antisense SEQ ID 145 (sense mGmCmAmUmCmAfGfCfAmUmAmAmGmAmAmAmCmUmUdTdT; antisense {P}-mAfAmGmUmUmUmCmUmUmAmUmGmCfUmGmAmUmGmCdTdT)”, for which the EC50 runs as follows: under setting [1], 0.01 nM; under setting [2], 0.22 nM; under setting [3], 10.4 nM.
Taken in the same sequence, the figures for “VEGFR2-21-h7#: siRNA targeting VEGFR2 mRNA; sense SEQ ID 66, antisense SEQ ID 109 (sense GCUGACAUGUACGGUCUAUTT; antisense AUAGACCGUACAUGUCAGCTT; sugars from the 5' end r19 d2, backbone not given here)” were 1.72 nM, 3 nM and 49.5 nM.
Taken in the same sequence, the figures for “VEGFR2-21-h7#mod: Modified (2′F, 2′OME, phosphorylation) siRNA targeting VEGFR2; sense SEQ ID 138, antisense SEQ ID 146 (sense mGmCmUmGmAmCfAfUfGmUmAmCmGmGmUmCmUmAmUdTdT; antisense {P}-mAfUmAmGmAmCmCmGmUmAmCmAmUfGmUmCmAmGmCdTdT)” were 51.4 nM, 384 nM and 170 nM.
In the case of “VEGFR2-21-hm17#: siRNA targeting VEGFR2 mRNA; sense SEQ ID 76, antisense SEQ ID 119 (sense GGACUGGCUUUGGCCCAAUTT; antisense AUUGGGCCAAAGCCAGUCCTT; sugars from the 5' end r19 d2, backbone not given here)”, the “knockdown effect … compared with unmodified” value is reported as “better than that of unmodified”. In addition, the EC50 under setting [1] worked out at 1.04 nM. The EC50 under setting [2] was determined as 2.09 nM. The EC50 under setting [3] amounted to 16.6 nM.
“VEGFR2-21-hm17#mod: Modified (2′F, 2′OME, phosphorylation) siRNA targeting VEGFR2; sense SEQ ID 135, antisense SEQ ID 143 (sense mGmGmAmCmUmGfGfCfUmUmUmGmGmCmCmCmAmAmUdTdT; antisense {P}-mAfUmUmGmGmGmCmCmAmAmAmGmCfCmAmGmUmCmCdTdT)”: the EC50 came out at 0.32 nM under setting [1], 0.25 nM under setting [2] and 312 nM under setting [3].
Consider “VEGFR2-21-hm18# mod: Modified (2′F, 2′OME, phosphorylation) siRNA targeting VEGFR2; sense SEQ ID 136, antisense SEQ ID 144 (sense mGmGmAmAmAmAfAfAfCmAmAmAmAmCmUmGmUmAmAdTdT; antisense {P}-mUfUmAmCmAmGmUmUmUmUmGmUmUfUmUmUmUmCmCdTdT)”, for which the EC50 runs as follows: under setting [1], 0.02 nM; under setting [2], 0.06 nM; under setting [3], 1.57 nM.
Take “VEGFR2-21-hm18#: siRNA targeting VEGFR2 mRNA; sense SEQ ID 77, antisense SEQ ID 120 (sense GGAAAAAACAAAACUGUAATT; antisense UUACAGUUUUGUUUUUUCCTT; sugars from the 5' end r19 d2, backbone not given here)”: the “knockdown effect … compared with unmodified” value was “better than that of unmodified”. The EC50 under setting [1] came to 3.26 nM. Also, the EC50 under setting [2] worked out at 3.81 nM. Further, the EC50 under setting [3] turned out to be 3.17 nM.
Consider “VEGFR2-25-h3#: siRNA targeting VEGFR2 mRNA; sense SEQ ID 43, antisense SEQ ID 86 (sense GACCAACAUGGAGUCGUGUACAUUA; antisense UAAUGUACACGACUCCAUGUUGGUC; RNA, backbone not given here)”, for which the EC50 amounted to 1.8 nM under setting [1], 0.35 nM under setting [2] and 10.9 nM under setting [3].
Taken in the same sequence, the figures for “VEGFR2-25-h3#mod: Modified (2′F, 2′OME, phosphorylation) siRNA targeting VEGFR2; sense SEQ ID 133, antisense SEQ ID 141 (sense mGmAmCmCmAmAmCmAmUmGmGmAfGfUfCmGmUmGmUmAmCmAmUmUmA; antisense {P}-mUfAmAmUmGmUmAmCmAmCmGmAmCfUmCmCmAmUmGmUmUmGmGmUmC)” were 1.65 nM, 1.76 nM and 1090 nM.
For “VEGFR2-25-h4#: siRNA targeting VEGFR2 mRNA; sense SEQ ID 44, antisense SEQ ID 87 (sense CCCUUGAGUCCAAUCACACAAUUAA; antisense UUAAUUGUGUGAUUGGACUCAAGGG; RNA, backbone not given here)”, the half-maximal effective concentration (EC50) is, setting by setting: under setting [1], 0.38 nM; under setting [2], 0.13 nM; under setting [3], 5.39 nM.
Take “VEGFR2-25-h 4#mod: Modified (2′F, 2′OME, phosphorylation) siRNA targeting VEGFR2; sense SEQ ID 134, antisense SEQ ID 142 (sense mCmCmCmUmUmGmAmGmUmCmCmAfAfUfCmAmCmAmCmAmAmUmUmAmA; antisense {P}-mUfUmAmAmUmUmGmUmGmUmGmAmUfUmGmGmAmCmUmCmAmAmGmGmG)”: the EC50 was determined as 0.21 nM under setting [1], 0.35 nM under setting [2] and 34.6 nM under setting [3].
